Experiments:
[1] = system: morphine brain distribution; settings: rats; cited from earlier work
[2] = system: MDCK II cells; settings: probenecid 10 μM, d-glucose 5 μM, digoxin 5 μM, M6G 100 μg/ml, cyclosporin 10 μM
Description: Madin-Darby Canine Kidney epithelial cell lines (MDCK-II, passages 3-7), and MDCK I-MDR (MDCK-PGP or MDCK WT, passages)([6]–[10]) were purchased from Borst- Amsterdam. MDCK-PGP is a MDCK-II recombinant clone containing the human MDR-I PGP gene.
When cell growth and cell number were sufficient, the cells were transferred into the transwells. The number of cells in each well was calculated using Eq. 1
In 48/case plates, with area of 0.3318 Cm^2for each insert, the required cells per insert were 13,272 cells. This number of cells was dispensed in 0.25 ml media for each insert and the cells suspension was poured into apical chambers of the inserts. Each treatment group comprised 4 replicates. One ml of cell free media was added to basal chambers. […]
After completing the incubation period, TEER of each Transwell inserts was measured using an EVOM epithelial voltammeter (WIP, Sarasota, FL) and the Transwell inserts were distributed evenly between treatment groups, based on the TEER measurement. […] The corrected cumulative concentrations of drug were determined based on the amount of removed and added buffer in each series of wells at each interval and the corrected concentrations were used for calculating the apparent permeability coefficient (ρ) according to the Eq. 2: […]

COc1cc2c(cc1OC)CN(CCc1ccc(NC(=O)c3cccc4c(=O)c5cccc(OC)c5[nH]c34)cc1)CC2 [GF120918]
Reduction of morphine brain distribution [1]: 42%

CN1CC[C@]23c4c5ccc(O)c4O[C@H]2[C@@H](O[C@@H]2O[C@H](C(=O)O)[C@@H](O)[C@H](O)[C@H]2O)C=C[C@H]3[C@H]1C5 [M6G, morphine 6 glucoronide]
Effect on morphine permeability via MDCK II cells [2]: no significant effects

C[C@H]1O[C@@H](O[C@H]2[C@@H](O)C[C@H](O[C@H]3[C@@H](O)C[C@H](O[C@H]4CC[C@@]5(C)[C@H](CC[C@@H]6[C@@H]5C[C@@H](O)[C@]5(C)[C@@H](C7=CC(=O)OC7)CC[C@]65O)C4)O[C@@H]3C)O[C@@H]2C)C[C@H](O)[C@@H]1O [digoxin]
Effect on morphine permeability via MDCK II cells [2]: significant fall
